Values after ≈ are worked out from the molar mass of the structure shown.
How the values were obtained:
[1] = tested on: Tubulin alpha chain (Homo sapiens); test: Percentage inhibition against human tubulin polymerization
[2] = tested on: Mycobacterium tuberculosis; test: In vitro minimum inhibitory concentration (MIC) towardsMtb H37Ra was determined using a colorimetric (Alamar blue) microdilution broth assay; assay type: functional
[3] = tested on: Mycobacterium tuberculosis; test: Compound was tested for inhibition of GTP hydrolysis at a concentration of 100 uM in Mycobacterium tuberculosis (Mtb); assay type: functional
[4] = tested on: Mycobacterium tuberculosis; test: Inhibitory dose required against Mycobacterium tuberculosis FtsZ polymerization; assay type: functional; settings: read-out: ID50 (the source's name)
[5] = target: Tubulin alpha chain (Sus scrofa) (UniProt P02550); test: Percentage inhibition against human tubulin polymerization; assay type: functional; settings: concentration not given here
Tubulin alpha chain (Sus scrofa), sequence (P02550 whole entry, looked up): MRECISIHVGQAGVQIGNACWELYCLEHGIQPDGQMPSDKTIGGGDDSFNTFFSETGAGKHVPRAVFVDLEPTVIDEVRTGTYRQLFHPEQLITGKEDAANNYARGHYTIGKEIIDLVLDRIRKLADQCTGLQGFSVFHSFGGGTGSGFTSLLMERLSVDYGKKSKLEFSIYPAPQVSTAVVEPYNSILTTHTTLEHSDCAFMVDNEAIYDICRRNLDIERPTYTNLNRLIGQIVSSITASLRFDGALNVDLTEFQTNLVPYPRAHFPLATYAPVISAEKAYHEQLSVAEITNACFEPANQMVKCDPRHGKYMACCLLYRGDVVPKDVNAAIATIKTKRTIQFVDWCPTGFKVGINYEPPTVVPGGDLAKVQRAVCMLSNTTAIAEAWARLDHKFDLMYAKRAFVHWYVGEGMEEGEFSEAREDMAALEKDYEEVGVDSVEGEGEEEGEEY

CCOC(=O)Nc1cc(NC(C)CCCN(CC)CC)c2nc(-c3ccccc3)c(-c3ccccc3)nc2n1 (stereo not drawn)
inhibition [1]: No inhibition | MIC [2]: > 0.25 µg/mL | Hydrolysis [3]: 35% | IC50 [4]: 34.2 µM

CCOC(=O)Nc1nc(NC(C)CCCN(CC)CC)c2nc(-c3ccccc3)c(-c3ccccc3)nc2n1 (stereo not drawn)
MIC [2]: 2 µg/mL (≈ 3.79 µM) | Hydrolysis [3]: 23% | inhibition [5]: 24% | IC50 [4]: 38.1 µM
